In patent US20250312499A1, “KISSPEPTIN RECEPTOR (KISS1R) TARGETED THERAPEUTICS AND USES THEREOF” (priority 2024, published 2025):
Numbered stars: 1 amine (or outer) side, 2 acyl side, 3 side chain; on linkers, the order of the positions; unused ones are H or OH. Square brackets hold non-standard residues; d marks the D form. Peptide text beside a SMILES is read from it. * marks the point of attachment. X8 = COCCOCCOCCOCCOCCOCCOCCOCCOCCOCCOCCOCCOCCOCCOCCOCCOCCOCCOCCOCCOCCOCCOCCOCCOCCC(=O)*; DOTA = O=C(O)CN1CCN(CC(=O)O)CCN(CC(=O)*)CCN(CC(=O)O)CC1; Gly(N-(3-F-4-Me-benzyl)) = Cc1ccc(CNCC(=O)*)cc1F; Butanoyl(4-(4-MePh)) = Cc1ccc(CCCC(=O)*)cc1; Api(1-amidino) = N=C(N)N1CCC(N)(C(=O)O)CC1; Hydrocinnamoyl(4-Me) = Cc1ccc(CCC(=O)*)cc1; Phe(3-F) = N[C@@H](Cc1cccc(F)c1)C(=O)O; 2Nal = N[C@@H](Cc1ccc2ccccc2c1)C(=O)O; d2Nal = N[C@H](Cc1ccc2ccccc2c1)C(=O)O; Trx = NC[C@H]1CC[C@H](C(=O)O)CC1; X1 = O=C(CN1CCC(N[*:1])CC1)[*:2]; dCya = N[C@H](CS(=O)(=O)O)C(=O)O; 4Pal = N[C@@H](Cc1ccncc1)C(=O)O; d4Pal = N[C@H](Cc1ccncc1)C(=O)O; Cha = N[C@@H](CC1CCCCC1)C(=O)O; 4Amb = NCc1ccc(C(=O)O)cc1; Octanoyl = CCCCCCCC(=O)*; Api = NC1(C(=O)O)CCNCC1; PEG2 = NCCOCCOCCC(=O)O; Ahx = NCCCCCC(=O)O; azaGly = NNC(=O)O

These compounds were tested against human kisspeptin receptor (Homo sapiens (Human), UniProt Q969F8) (assay: Human KISS1R binding assay (membrane competition binding)). Conditions: 90 min at room temperature; competition with 0.2 nM [125I]-metastin (45-54); Flp-In T-Rex 293 kisspeptin membranes; metal complexes nonradioactive Ga, In, Lu; read-out: hKiSSR Binding Ki (90 min).
Chain of human kisspeptin receptor (Q969F8 whole entry): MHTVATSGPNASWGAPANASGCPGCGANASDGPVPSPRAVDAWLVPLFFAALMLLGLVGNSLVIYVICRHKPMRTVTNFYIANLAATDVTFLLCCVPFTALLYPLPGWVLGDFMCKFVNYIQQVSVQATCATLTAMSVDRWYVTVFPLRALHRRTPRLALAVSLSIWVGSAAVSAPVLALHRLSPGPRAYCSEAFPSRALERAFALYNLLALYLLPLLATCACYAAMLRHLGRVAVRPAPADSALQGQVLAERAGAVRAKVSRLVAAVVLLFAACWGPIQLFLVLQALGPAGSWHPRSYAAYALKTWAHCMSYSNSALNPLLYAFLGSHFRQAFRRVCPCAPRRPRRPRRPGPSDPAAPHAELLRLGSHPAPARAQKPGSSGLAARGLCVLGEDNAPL
Procedure, shortened: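 Membranes from tetracycline-induced (48 h) Flp-In T-Rex 293 cells expressing receptor, 5–10 μg, incubated 90 min at room temperature with 0.2 nM [125I]-metastin (45-54) and competitor (typically 0–10,000 nM) in Tris/Mg/Ca/EGTA/0.1% BSA, pH 7.4. Filtration, washing, counting; Ki by non-linear regression.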
Cc1ccc(CNCC(=O)N2CCC(NC(=O)[C@H](CC(C)C)NC(=O)NNC(=O)[C@H](Cc3ccccc3)NC(=O)CCCCCNC(=O)[C@H](Cc3ccc(O)cc3)NC(=O)CNC(=O)c3ccc(CNC(=O)CN4CCN(CC(=O)O)CCN(CC(=O)O)CCN(CC(=O)O)CC4)cc3)(C(=O)N[C@@H](Cc3c[nH]c4ccccc34)C(N)=O)CC2)cc1F [Compound 176] ({DOTA-4Amb}-GY[Ahx]F[azaGly]L[Api](Gly(N-(3-F-4-Me-benzyl)))W-NH2) showed a Ki of less than 10 nM. Cc1ccc(CNCC(=O)N2CCC(NC(=O)[C@H](CC(C)C)NC(=O)NNC(=O)[C@H](Cc3ccccc3)NC(=O)CCCCCNC(=O)CN3CCN(CC(=O)O)CCN(CC(=O)O)CCN(CC(=O)O)CC3)(C(=O)N[C@@H](Cc3ccccc3)C(N)=O)CC2)cc1F [Compound 55] ({DOTA-Ahx}-F[azaGly]L[Api](Gly(N-(3-F-4-Me-benzyl)))F-NH2) was tested, and the Ki was less than 10 nM. With Cc1ccc(CNCC(=O)N2CCC(NC(=O)[C@H](CC(C)C)NC(=O)NNC(=O)[C@H](Cc3ccccc3)NC(=O)[C@H]3CC[C@H](CNC(=O)CN4CCN(CC(=O)O)CCN(CC(=O)O)CCN(CC(=O)O)CC4)CC3)(C(=O)N[C@@H](Cc3c[nH]c4ccccc34)C(N)=O)CC2)cc1F [Compound 192] ({DOTA-Trx}-F[azaGly]L[Api](Gly(N-(3-F-4-Me-benzyl)))W-NH2) the Ki was less than 10 nM. Compound Cc1ccc(CNCC(=O)N2CCC(NC(=O)[C@@H](/C=C/CNC(=O)[C@H](Cc3ccccc3)NC(=O)CCCCCNC(=O)CN3CCN(CC(=O)O)CCN(CC(=O)O)CCN(CC(=O)O)CC3)CC(C)C)(C(=O)N[C@@H](Cc3c[nH]c4ccccc34)C(N)=O)CC2)cc1F [Compound 51] has a Ki of less than 10 nM. Cc1ccc(CNCC(=O)N2CCC(NC(=O)[C@H](CC(C)C)NC(=O)NNC(=O)[C@H](Cc3ccccc3)NC(=O)[C@@H](NC(=O)[C@H](CC(N)=O)NC(=O)[C@@H](Cc3c[nH]c4ccccc34)NC(=O)[C@@H](Cc3ccc(O)cc3)NC(=O)CCCCCNC(=O)[C@@H](CS(=O)(=O)O)NC(=O)[C@@H](CS(=O)(=O)O)NC(=O)[C@@H](CS(=O)(=O)O)NC(=O)CN3CCN(CC(=O)O)CCN(CC(=O)O)CCN(CC(=O)O)CC3)[C@@H](C)O)(C(=O)N[C@@H](Cc3c[nH]c4ccccc34)C(N)=O)CC2)cc1F [Compound 114] ({DOTA}-[dCya][dCya][dCya][Ahx][dY][dW]NTF[azaGly]L[Api](Gly(N-(3-F-4-Me-benzyl)))W-NH2) was tested, and the Ki was less than 10 nM. Cc1ccc(CNCC(=O)N2CCC(NC(=O)[C@H](CC(C)C)NC(=O)NNC(=O)[C@H](Cc3ccccc3)NC(=O)[C@@H](NC(=O)[C@H](CC(N)=O)NC(=O)[C@@H](Cc3ccncc3)NC(=O)[C@@H](Cc3ccc(O)cc3)NC(=O)CCOCCOCCNC(=O)CN3CCN(CC(=O)O)CCN(CC(=O)O)CCN(CC(=O)O)CC3)[C@@H](C)O)(C(=O)N[C@@H](Cc3c[nH]c4ccccc34)C(N)=O)CC2)cc1F [Compound 368] ({DOTA-PEG2}-[dY][d4Pal]NTF[azaGly]L[Api](Gly(N-(3-F-4-Me-benzyl)))W-NH2) gave a Ki of less than 10 nM. Cc1ccc(CNCC(=O)N2CCC(NC(=O)[C@H](CC(C)C)NC(=O)NNC(=O)[C@H](Cc3ccccc3)NC(=O)[C@@H](NC(=O)[C@H](CC(N)=O)NC(=O)NNC(=O)[C@@H](Cc3ccc(O)cc3)NC(=O)CCCCCNC(=O)CN3CCN(CC(=O)O)CCN(CC(=O)O)CCN(CC(=O)O)CC3)[C@@H](C)O)(C(=O)N[C@@H](Cc3c[nH]c4ccccc34)C(N)=O)CC2)cc1F [Compound 108] ({DOTA-Ahx}-[dY][azaGly]NTF[azaGly]L[Api](Gly(N-(3-F-4-Me-benzyl)))W-NH2) gave a Ki of less than 10 nM. Compound Cc1ccc(CCCC(=O)NCCCC[C@@H](NC(=O)CCCCCNC(=O)CN2CCN(CC(=O)O)CCN(CC(=O)O)CCN(CC(=O)O)CC2)C(=O)N[C@H](Cc2ccc(O)cc2)C(=O)N[C@H](Cc2ccc3ccccc3c2)C(=O)N[C@@H](CC(N)=O)C(=O)N[C@H](C(=O)N[C@@H](Cc2ccccc2)C(=O)NNC(=O)N[C@@H](CC(C)C)C(=O)NC2(C(=O)N[C@@H](Cc3c[nH]c4ccccc34)C(N)=O)CCN(C(=N)N)CC2)[C@@H](C)O)cc1 [Compound 335] ({DOTA-Ahx}-[dK](Butanoyl(4-(4-MePh)))[dY][d2Nal]NTF[azaGly]L[Api(1-amidino)]W-NH2) has a Ki of less than 10 nM. In the case of Cc1ccc(CCC(=O)NCCOCCOCCC(=O)N[C@H](Cc2ccc(O)cc2)C(=O)N[C@@H](CCCCNC(=O)CN2CCN(CC(=O)O)CCN(CC(=O)O)CCN(CC(=O)O)CC2)C(=O)N[C@@H](CC(N)=O)C(=O)N[C@H](C(=O)N[C@@H](CC2CCCCC2)C(=O)NNC(=O)N[C@@H](CC(C)C)C(=O)NC2(C(=O)N[C@@H](Cc3c[nH]c4ccccc34)C(N)=O)CCN(C(=N)N)CC2)[C@@H](C)O)cc1 [Compound 326] ({Hydrocinnamoyl(4-Me)-PEG2}-[dY]K(DOTA)NT[Cha][azaGly]L[Api(1-amidino)]W-NH2), the Ki is reported as less than 10 nM. Compound CC(C)C[C@H](NC(=O)NNC(=O)[C@H](Cc1ccccc1)NC(=O)[C@@H](NC(=O)[C@H](CC(N)=O)NC(=O)[C@@H](Cc1ccc2ccccc2c1)NC(=O)[C@@H](Cc1ccc(O)cc1)NC(=O)CCOCCOCCN)[C@@H](C)O)C(=O)NC1(C(=O)N[C@@H](Cc2c[nH]c3ccccc23)C(N)=O)CCN(C(=N)N)CC1 [Compound 410] (H-[PEG2][dY][d2Nal]NTF[azaGly]L[Api(1-amidino)]W-NH2) has a Ki of less than 10 nM. With COCCOCCOCCOCCOCCOCCOCCOCCOCCOCCOCCOCCOCCOCCOCCOCCOCCOCCOCCOCCOCCOCCOCCOCCOCCC(=O)N[C@H](Cc1ccc(O)cc1)C(=O)N[C@@H](CCCCNC(=O)CN1CCN(CC(=O)O)CCN(CC(=O)O)CCN(CC(=O)O)CC1)C(=O)N[C@@H](CC(N)=O)C(=O)N[C@H](C(=O)N[C@@H](Cc1ccccc1)C(=O)NNC(=O)N[C@@H](CC(C)C)C(=O)NC1(C(=O)N[C@@H](Cc2c[nH]c3ccccc23)C(N)=O)CCN(C(=N)N)CC1)[C@@H](C)O [Compound 182] (X8-[dY]K(DOTA)NTF[azaGly]L[Api(1-amidino)]W-NH2) the Ki was less than 10 nM. Cc1ccc(CNCC(=O)N2CCC(NC(=O)c3ccnc(CNC(=O)[C@H](Cc4ccccc4)NC(=O)CCCCCNC(=O)CN4CCN(CC(=O)O)CCN(CC(=O)O)CCN(CC(=O)O)CC4)c3)(C(=O)N[C@@H](Cc3c[nH]c4ccccc34)C(N)=O)CC2)cc1F [Compound 136] showed a Ki greater than 100 nM. CCCCCCCC(=O)N[C@@H](CCCCNC(=O)CN1CCN(CC(=O)O)CCN(CC(=O)O)CCN(CC(=O)O)CC1)C(=O)N[C@@H](CC(N)=O)C(=O)N[C@H](C(=O)N[C@@H](Cc1ccccc1)C(=O)NNC(=O)N[C@@H](CC(C)C)C(=O)NC1(C(=O)N[C@@H](Cc2ccncc2)C(N)=O)CCN(C(=N)N)CC1)[C@@H](C)O [Compound 226] (Octanoyl-K(DOTA)NTF[azaGly]L[Api(1-amidino)][4Pal]-NH2) showed a Ki of 10 to 100 nM. With CC(C)C[C@H](NC(=O)CNC(=O)[C@H](Cc1ccccc1)NC(=O)CCCCCNC(=O)CN1CCN(CC(=O)O)CCN(CC(=O)O)CCN(CC(=O)O)CC1)C(=O)NC1(C(=O)N[C@@H](Cc2c[nH]c3ccccc23)C(N)=O)CCN(C(=N)N)CC1 [Compound 3] ({DOTA-Ahx}-FGL[Api(1-amidino)]W-NH2) the Ki was greater than 100 nM. With Cc1ccc(CNCC(=O)N2CCC(NC(=O)[C@H](CC(C)C)NC(=O)NNC(=O)[C@H](Cc3ccccc3)NC(=O)CCCCCNC(=O)[C@@H](Cc3ccncc3)NC(=O)[C@@H](Cc3ccc(O)cc3)NC(=O)CN3CCN(CC(=O)O)CCN(CC(=O)O)CCN(CC(=O)O)CC3)(C(=O)N[C@@H](Cc3c[nH]c4ccccc34)C(N)=O)CC2)cc1F [Compound 186] ({DOTA}-[dY][d4Pal][Ahx]F[azaGly]L[Api](Gly(N-(3-F-4-Me-benzyl)))W-NH2) the Ki was less than 10 nM. CC(C)C[C@H](NC(=O)NNC(=O)[C@H](Cc1ccccc1)NC(=O)[C@@H](NC(=O)[C@H](CC(N)=O)NC(=O)[C@@H](Cc1ccc2ccccc2c1)NC(=O)CN1CCN(CC(=O)O)CCN(CC(=O)O)CCN(CC(=O)O)CC1)[C@@H](C)O)C(=O)NC1(C(=O)N[C@@H](Cc2ccccc2)C(N)=O)CCN(C(=N)N)CC1 [Compound 302] ({DOTA}-[d2Nal]NTF[azaGly]L[Api(1-amidino)]F-NH2) showed a Ki of less than 10 nM. Cc1ccc(CNCC(=O)N2CCC(NC(=O)[C@H](CC(C)C)NC(=O)NNC(=O)[C@H](Cc3ccccc3)NC(=O)[C@@H](NC(=O)[C@H](CC(N)=O)NC(=O)[C@@H]3CCCN3C(=O)[C@@H](Cc3ccc(O)cc3)NC(=O)CCCCCNC(=O)CN3CCN(CC(=O)O)CCN(CC(=O)O)CCN(CC(=O)O)CC3)[C@@H](C)O)(C(=O)N[C@@H](Cc3c[nH]c4ccccc34)C(N)=O)CC2)cc1F [Compound 20] ({DOTA-Ahx}-[dY]PNTF[azaGly]L[Api](Gly(N-(3-F-4-Me-benzyl)))W-NH2) gave a Ki of less than 10 nM. In the case of CC(C)C[C@H](NC(=O)NNC(=O)[C@H](Cc1ccccc1)NC(=O)[C@@H](NC(=O)[C@H](CC(N)=O)NC(=O)[C@H](Cc1ccc2ccccc2c1)NC(=O)[C@@H](Cc1ccc(O)cc1)NC(=O)CCCCCNC(=O)CN1CCN(CC(=O)O)CCN(CC(=O)O)CCN(CC(=O)O)CC1)[C@@H](C)O)C(=O)NC1(C(=O)N[C@@H](Cc2ccccc2)C(N)=O)CCN(C(=N)N)CC1 [Compound 277] ({DOTA-Ahx}-[dY][2Nal]NTF[azaGly]L[Api(1-amidino)]F-NH2), the Ki is reported as less than 10 nM. Cc1ccc(CNCC(=O)N2CCC(NC(=O)c3ccc(-c4ccccc4)c(OCCNNC(=O)[C@H](Cc4ccccc4)NC(=O)CCCCCNC(=O)CN4CCN(CC(=O)O)CCN(CC(=O)O)CCN(CC(=O)O)CC4)c3)(C(=O)N[C@@H](Cc3c[nH]c4ccccc34)C(N)=O)CC2)cc1F [Compound 280] gave a Ki greater than 100 nM. Compound Cc1ccc(CNCC(=O)N2CCC(NC(=O)[C@H](CC(C)C)NC(=O)NNC(=O)[C@H](Cc3cccc(F)c3)NC(=O)[C@@H](NC(=O)[C@H](CC(N)=O)NC(=O)[C@H](CCC(=O)O)NC(=O)CN3CCC(NC(=O)CN4CCN(CC(=O)O)CCN(CC(=O)O)CCN(CC(=O)O)CC4)CC3)[C@@H](C)O)(C(=O)N[C@@H](Cc3c[nH]c4ccccc34)C(N)=O)CC2)cc1F [Compound 159] ({DOTA}-[X1]ENT[Phe(3-F)][azaGly]L[Api](Gly(N-(3-F-4-Me-benzyl)))W-NH2) has a Ki of less than 10 nM.
